Test results: doi:10.1101/2024.09.09.611999v1 (biorxiv, 2024)
Substitutions are numbered along the chain they refer to. Where two headings read alike, the source gives them in different places.

Tests used:
overexpressed PRDX6 = biological target: T1, overexpressed PRDX6 (Homo sapiens, UniProt P30041); experiment: H2O2 clearance; assay type: cell-based
T1 sequence (P30041 2-224): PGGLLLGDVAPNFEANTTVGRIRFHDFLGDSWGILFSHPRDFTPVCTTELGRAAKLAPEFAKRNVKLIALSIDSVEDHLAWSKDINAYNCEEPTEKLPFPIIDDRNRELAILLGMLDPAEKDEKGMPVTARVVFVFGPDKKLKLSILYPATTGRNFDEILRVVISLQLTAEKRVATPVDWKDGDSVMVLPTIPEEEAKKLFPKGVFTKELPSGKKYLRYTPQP

PRDX6 with GFP tag [1] = biological target: T2, PRDX6 with GFP tag (Homo sapiens, UniProt P30041, C91A); experiment: cellular microscale thermophoresis, GFP fusion
T2 sequence (P30041 2-224 C91A): T1 sequence (P30041 2-224) with C90A

PRDX6 with GFP tag [2] = biological target: T3, PRDX6 with GFP tag (Homo sapiens, UniProt P30041, E210A); experiment: cellular microscale thermophoresis, GFP fusion
T3 sequence (P30041 2-224 E210A): T1 sequence (P30041 2-224) with E209A

Row | IC50 (overexpressed PRDX6; substrate H2O2) | Kd (PRDX6 with GFP tag [1]) | Kd (PRDX6 with GFP tag [2]) | IC50 (overexpressed PRDX6) | Structure (SMILES)
1 | 15.5 µM |  |  |  | CC(=O)N[C@@H](CS)C(=O)O [NAC, reference compound]
2 |  | 10.9 µM | 14.5 µM | 49.5 µM | O=c1cc(-c2ccc(O)cc2)oc2cc(O)cc(O)c12 [apigenin, 4’,5,7-trihydroxyflavone]
